Results on two compounds are retold here after PMC8552062, “Contributions of UDP-Glucuronosyltransferases to Human Hepatic and Intestinal Metabolism of Ticagrelor and Inhibition of UGTs and Cytochrome P450 Enzymes by Ticagrelor and its Glucuronidated Metabolite” (Frontiers in Pharmacology, 2021).

Broadly, the IC50 is the concentration needed to halve the response being measured. Low values mean greater potency, high ones weaker potency. The term Km denotes the substrate concentration at which the rate is half of its maximum. In general, microsomal CLint refers to the rate of metabolic loss divided by the concentration.

What all share (format): in vitro ADME
In series [1] the target is T1, CYP2D6 (Homo sapiens, UniProt P10635).
T1 construct: co-incubation ticagrelor-O-Glu with selective P450 probe substrates in HLM; tissue XenoTech LLC; host or cells: pooled human liver microsomes
In words: CYP2D6 inhibition in HLM (dextromethorphan O-demethylase). Particulars: HLM 0.2 mg/ml. How it is done:
The potential inhibitory effects of ticagrelor-O-Glu on the activities of major CYPs, i.e., CYP2B6, CYP2C8, CYP2C9, CYP2C19, CYP2D6, and CYP3A4, were evaluated by co-incubation ticagrelor-O-Glu with selective P450 probe substrates in HLM. Each incubation mixture containing 0.2 mg/ml HLM, ticagrelor-O-Glu and respective substrate (the final substrate concentrations are close to or less than the Km values: 150 μM bupropion, 1.26 μM amodiaquine, 10 μM diclofenac, 20 μM mephenytoin, 20 μM dextromethorphan and 80 μM testosterone (in house data)) in potassium phosphate buffer (100 mM, pH 7.4) was pre-incubated at 37°C for 5 min. Then, NADPH (10 mM) was added to initiate the reaction. The final volume of the incubation mixture was 100 μl. After incubation at 37°C for specific time points, the reaction was terminated by the addition of 200 μl of ice-cold methanol solution with internal standards (diazepam and furafylline). […] The formation of respective metabolites was determined to reflect P450 isoform activities. The metabolites quantified for CYP2B6, CYP2C8, CYP2C9, CYP2C19, CYP2D6, and CYP3A4 were hydroxy bupropion, N-Desethyl amodiaquine, 4′-hydroxylation diclofenac, S-4-hydroxy mephenytoin, dextrorphan and 6β-hydroxy testosterone, respectively.
The percent inhibition relative to the control was calculated to indicate the UGTs or CYPs inhibition. […]

For series [2], the system named is human intestinal microsomes (HIM). In words: Ticagrelor glucuronidation kinetics in pooled HIM. Here is the method:
(§1) Ticagrelor glucuronidation was investigated in an in vitro incubation system by using HLM, HIM, and recombinant human UGTs. The incubation system consisted of enzyme sources (HLM, HIM, or human recombinant UGTs), various concentrations of ticagrelor (dissolved in 50% methanol, 1% v/v, 1, 2, 5, 10, 20, 50, 100, 200, 500 μM of final concentration), alamethicin (50 μg/mg protein), 5 mM MgCl2, 100 mM tris-HCL buffer (pH 7.4), and 5 mM UDPGA in a total volume of 100 μl. Alamethicin is a pore-forming polypeptide used to activate UGTs in HLM and HIM ([Fisher et al., 2000]). Preliminary studies were conducted to determine the optimal protein concentrations and incubation times. Linear conditions of ticagrelor-O-Glu formation from ticagrelor, i.e., HLM, 0.2 mg of protein/ml and 60 min, HIM, 0.2 mg of protein/ml and 60 min, and recombinant human UGTs, 0.2 mg of protein/ml and 60 min were selected. The incubation mixture without UDPGA was placed on ice for 15 min to activate UGT by alamethicin. After pre-incubation for 5 min at 37°C, the reactions were started by the addition of UDPGA. After another 60 min of incubation at 37°C, the reaction was terminated by adding 100 μl of acetonitrile containing internal standard (diazepam). The mixture vortexed for 2 min and then centrifuged at 14,000 rpm for 10 min at 4°C. The resulting supernatant was injected into a liquid chromatography tandem mass spectrometry (LC-MS/MS, Applied Biosystems/MDS Sciex, Foster City, CA) system for the detection of ticagrelor-O-Glu.
Kinetic analyses were performed using the mean values of triplicate determinations with either pooled HLM, HIM, or recombinant human UGTs. All data were analyzed by nonlinear regression analysis using the GraphPad Prism 6 (GraphPad Software Inc., CA, United States). Michaelis-Menten kinetics (Eq. 1) or substrate inhibition kinetics (Eq. 2) ([Houston and Kenworthy, 2000]) were tested to determine the optimal model for describing the data. […] Intrinsic clearance (CLint) was calculated by dividing Vmax by Km.

The target of series [3] is T2, UGT1A1 (Homo sapiens, UniProt P22309).
T2 sequence (P22309 26-533): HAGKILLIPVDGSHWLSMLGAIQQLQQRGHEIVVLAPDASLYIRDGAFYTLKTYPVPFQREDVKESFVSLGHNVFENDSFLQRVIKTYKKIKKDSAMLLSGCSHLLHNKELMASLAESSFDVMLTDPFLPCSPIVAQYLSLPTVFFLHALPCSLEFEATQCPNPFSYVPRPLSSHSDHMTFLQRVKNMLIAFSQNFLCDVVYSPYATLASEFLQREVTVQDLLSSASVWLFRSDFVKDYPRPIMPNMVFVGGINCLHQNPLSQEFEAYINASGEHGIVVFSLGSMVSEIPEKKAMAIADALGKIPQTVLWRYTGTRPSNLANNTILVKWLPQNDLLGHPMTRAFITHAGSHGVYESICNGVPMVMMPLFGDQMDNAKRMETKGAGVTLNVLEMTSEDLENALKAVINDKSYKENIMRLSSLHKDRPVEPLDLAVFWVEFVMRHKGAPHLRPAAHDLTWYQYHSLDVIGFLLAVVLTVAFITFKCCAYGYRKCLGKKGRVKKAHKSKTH
The series is described as follows: Ticagrelor glucuronidation by recombinant human UGT1A1. Set-up: purchased BD Gentest; host or cells: baculovirus-infected insect cells. The settings on record: recombinant human UGT1A1, pH 7.4. How it is done:
as §1, with “After pre-incubation for 5 min at 37°C, the reactions were started by the addition of UDPGA. After another 60 min of incubation at 37°C, the reaction was terminated by adding 100 μl of acetonitrile containing internal standard (diazepam). The mixture vortexed for 2 min and then centrifuged at 14,000 rpm for 10 min at 4°C. The resulting supernatant was injected into a liquid chromatography tandem mass spectrometry (LC-MS/MS, Applied Biosystems/MDS Sciex, Foster City, CA) system for the detection of ticagrelor-O-Glu.” left out
Kinetic analyses were performed using the mean values of triplicate determinations with either pooled HLM, HIM, or recombinant human UGTs. All data were analyzed by nonlinear regression analysis using the GraphPad Prism 6 (GraphPad Software Inc., CA, United States). […] Intrinsic clearance (CLint) was calculated by dividing Vmax by Km.

T1 sequence (P10635 whole entry): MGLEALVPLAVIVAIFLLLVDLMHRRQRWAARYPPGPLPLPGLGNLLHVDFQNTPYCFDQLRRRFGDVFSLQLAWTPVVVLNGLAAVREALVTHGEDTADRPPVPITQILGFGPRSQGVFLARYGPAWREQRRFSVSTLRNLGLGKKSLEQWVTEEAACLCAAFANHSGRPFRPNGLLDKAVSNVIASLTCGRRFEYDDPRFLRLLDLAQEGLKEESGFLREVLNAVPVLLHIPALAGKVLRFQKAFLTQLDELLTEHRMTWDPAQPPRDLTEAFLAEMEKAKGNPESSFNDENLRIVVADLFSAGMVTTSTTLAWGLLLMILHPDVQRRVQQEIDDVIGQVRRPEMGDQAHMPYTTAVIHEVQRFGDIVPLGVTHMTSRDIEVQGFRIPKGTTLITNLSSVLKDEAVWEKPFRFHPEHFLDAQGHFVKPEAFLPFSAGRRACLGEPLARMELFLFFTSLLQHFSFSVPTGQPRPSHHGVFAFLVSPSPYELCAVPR

As to `CCCSc1nc(N[C@@H]2C[C@H]2c2ccc(F)c(F)c2)c2nnn([C@@H]3C[C@H](OCCO[C@@H]4O[C@H](C(=O)O)[C@@H](O)[C@H](O)[C@H]4O)[C@@H](O)[C@H]3O)c2n1` [Ticagrelor-O-Glu, ticagrelor-O-glucuronide], the IC50 in series [1] was > 100 µM.

On to `CCCSc1nc(N[C@@H]2C[C@H]2c2ccc(F)c(F)c2)c2nnn([C@@H]3C[C@H](OCCO)[C@@H](O)[C@H]3O)c2n1` [Ticagrelor], for which, in series [2] (pooled HIM), the Ksi was determined as 292.9 µM and the Vmax is 0.90 pmol·min^−1·mg protein^−1. In addition, in series [2] (pooled HIM 0.2 mg protein/ml, 60 min, substrate inhibition kinetics), the Km came out at 2.52 µM. In addition, the microsomal CLint in series [3] was 0.03 µL/min/mg.
